# Assay results published in patent publication US9540371B2, “Substituted quinazolin-4(3H)-ones, pyrido[3,4-d]pyrimidin-4(3H)-ones, pyrido[3,2-d]pyrimidin-4(3H)-ones and pyrido[2,3-d]pyrimidin-4(3H)-ones as positive allosteric modulators of muscarinic acetycholine receptor M1” (Vanderbilt University, priority 2013, dated 2017).
# Target: T1, mAChR M1 (UniProt P11229)
# T1 sequence (P11229 1-460): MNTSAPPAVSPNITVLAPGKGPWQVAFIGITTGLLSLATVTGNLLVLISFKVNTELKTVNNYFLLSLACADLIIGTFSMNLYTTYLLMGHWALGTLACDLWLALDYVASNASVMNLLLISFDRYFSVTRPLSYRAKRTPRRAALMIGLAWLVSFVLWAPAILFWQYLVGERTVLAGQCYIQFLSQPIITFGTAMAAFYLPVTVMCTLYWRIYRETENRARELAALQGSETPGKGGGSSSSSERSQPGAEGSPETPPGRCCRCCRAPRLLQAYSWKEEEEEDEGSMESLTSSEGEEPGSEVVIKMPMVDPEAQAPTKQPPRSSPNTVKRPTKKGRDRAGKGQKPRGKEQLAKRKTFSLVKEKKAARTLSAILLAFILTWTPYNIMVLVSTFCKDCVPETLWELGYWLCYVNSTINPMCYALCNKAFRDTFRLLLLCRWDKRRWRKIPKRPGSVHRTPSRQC
# Assay: mAChR M1 cell-based functional assay (calcium mobilization, PAM mode)
# Conditions: calcium flux in CHO-K1 cells expressing mAChR M1; increase in the EC20 acetylcholine response; >10 μM estimated where no plateau but >20% increase in ACh response
# Description: Chinese hamster ovary (CHO-K1) cells stably expressing rat (r)M1 were purchased from the American Type Culture Collection and cultured according to their indicated protocol. CHO cells stably expressing human (h)M2, hM3, and hM5 were described previously (Levey, A. I., et al., J Neurosci. 1991, 11, 3218-3226.); hM1 and hM4 cDNAs were purchased from Missouri S&T cDNA Resource; rM4 cDNA was provided by T. I. Bonner (National Institutes of Health, Bethesda, Md.). rM2 and rM3 were cloned from a rat brain cDNA library and sequence verified. hM1, rM2, rM3, hM4, and rM4 cDNAs were used to stably transfect CHO-K1 cells purchased from the American Type Culture Collection using Lipofectamine® 2000 (Thermo Fisher Scientific Inc.). To make stable rM2, hM2, hM4, and rM4 cell lines for use in calcium mobilization assays, these cells also were stably transfected with a chimeric G-protein (Gqi5) (provided by B. R. Conklin, University of California, San Francisco) using Lipofectamine® 2000. rM1, hM1, rM3, hM3, rM5, and hM5 cells were grown in Ham's F-12 medium containing 10% heat-inactivated fetal bovine serum (FBS), 20 mM HEPES, and 50 μg/mL G418 sulfate. rM2-Gqi5, hM2-Gqi5, and hM4-Gqi5 cells were grown in the same medium also containing 500 μg/mL hygromycin B. Stable rM4-Gqi5 cells were grown in DMEM containing 10% heat-inactivated FBS, 20 mM HEPES, 400 μg/mL G418 sulfate, and 500 μg/mL hygromycin B.
# For high throughput measurement of agonist-evoked increases in intracellular calcium, CHO-K1 cells stably expressing muscarinic receptors were plated in growth medium lacking G418 and hygromycin B at 15,000 cells/20 μL/well in Greiner 384-well black-walled, tissue culture (TC)-treated, clear-bottom plates (VWR). Cells were incubated overnight at 37° C. and 5% CO2. The next day, cells were washed using an ELX 405 (BioTek) with four washes (80 μL) of assay buffer then aspirated to 20 μL. Next, 20 μL of 16 μM Fluo-4/acetoxymethyl ester (Invitrogen, Carlsbad, Calif.) prepared as a 2.3 mM stock in DMSO and mixed in a 1:1 ratio with 10% (w/v) Pluronic F-127 and diluted in assay buffer was added to the wells and the cell plates were incubated for 50 min at 37° C. and 5% CO2. Dye was removed by washing with the ELX 405 (four 80 μL washes of assay buffer) then aspirated to 20 μL. Compound master plates were formatted in an 11 point CRC format (1:3 dilutions) in 100% DMSO with a starting concentration of 10 mM using the BRAVO liquid handler (Agilent). Test compound CRCs were then transferred to daughter plates (240 nL) using the Echo acoustic plate reformatter (Labcyte, Sunnyvale, Calif.) and then diluted into assay buffer (40 μL) to a 2× stock using a Thermo Fisher Combi (Thermo Fisher Scientific, Waltham, Mass.).
# Calcium flux was measured using the Functional Drug Screening System (FDSS) 6000 (Hamamatsu Corporation, Tokyo, Japan) as an increase in the fluorescent static ratio. Compounds were applied to cells (20 μL, 2X) using the automated system of the FDSS 6000 at 4 s into the 300 s protocol and the data were collected at 1 Hz. At 144 s into the 300 s protocol, 10 μL of an EC20 concentration of the muscarinic receptor agonist acetylcholine was added (5X), followed by the addition of […] concentration of acetylcholine at the 230 s time point (5X). Agonist activity was analyzed as a concentration—dependent increase in calcium mobilization upon compound addition. Positive allosteric modulator activity was analyzed as a concentration-dependent increase in the EC20 acetylcholine response. Antagonist activity was analyzed as a concentration-dependent decrease in the EC80 acetylcholine response. Concentration-response curves were generated using a four -parameter logistical equation in XLFit curve fitting software (IDBS, Bridgewater, N.J.) for Excel (Microsoft, Redmond, Wash.) or Prism (GraphPad Software, Inc., San Diego, Calif.).
# The calcium mobilization assay was also used to determine “efficacy”. […]
row,Structure (SMILES),EC50 [µM]
1,Cn1cc(-c2ccc(Cn3cnc4ncccc4c3=O)cc2)cn1 [Compound B6],> 10
2,O=c1c2ccncc2ncn1Cc1ccc(-n2cccn2)cc1 [Compound B8],> 10
3,O=c1c2ncccc2ncn1Cc1ccc(-n2cccn2)cc1 [Compound B10],> 10
4,Cn1cc(-c2ccc(Cn3cnc4cccnc4c3=O)cc2)cn1 [Compound B11],> 10

# More lines, now with the values ahead:
row,EC50 [µM],Structure (SMILES)
1,> 10,O=c1c2ccccc2ncn1Cc1ccc(-n2cccn2)cc1 [Compound B2]
2,> 10,Cn1cc(-c2ccc(Cn3cnc4ccccc4c3=O)cc2)cn1 [Compound B3]
3,> 10,O=c1c2cccnc2ncn1Cc1ccc(-n2cccn2)cc1 [Compound B5]
4,0.6,"Cn1cc2c(-c3cc(F)c(Cn4cnc5cnccc5c4=O)c(F)c3)cccc2n1 [Compound B7, 3-(2,6-Difluoro-4-(2-Methyl-2H-Indazol-4-yl)Benzyl)Pyrido[3,4-D]Pyrimidin-4(3H)-one]"
5,4.9,Cn1cc(-c2ccc(Cn3cnc4cnccc4c3=O)cc2)cn1 [Compound B9]
6,3.6,Cn1cc2c(-c3cc(F)c(Cn4cnc5cccnc5c4=O)c(F)c3)cccc2n1 [Compound B12]
